Test results reported in ChEMBL document CHEMBL3352545, “Two new unusual monoterpene acid glycosides from Acacia cyclops with potential cytotoxic activity” (2014).

Legend:
MCF7 = assay: Growth inhibition of human MCF7 cells at 50 ug/mL by MTT assay; assay type: functional; details: read-out: GI
OVCAR = assay: Growth inhibition of human OVCAR cells at 50 ug/mL by MTT assay; assay type: functional; details: read-out: GI

Work on `C=CC(C)(CC/C=C(\C)C(=O)O)O[C@@H]1O[C@H](CO)[C@@H](OC(C)(C=C)CC/C=C(/C)C(=O)O)[C@H](O)[C@H]1O` (some centres undefined) yielded an inhibition of growth at 50 µg/mL (MCF7) of 98.9% and an inhibition of growth at 50 µg/mL (OVCAR) of 77.7%.

In the case of `C=CC(C)(CC/C=C(\C)C(=O)O)O[C@@H]1O[C@@H](C)[C@H](OC(C)(C=C)CC/C=C(\C)C(=O)O)[C@@H](O)[C@H]1O` (some centres undefined), the inhibition of growth at 50 µg/mL (MCF7) is reported as 68.2% and the inhibition of growth at 50 µg/mL (OVCAR) is reported as 66.5%.
